The record followed here is patent US20120141496A1, “IAP BIR DOMAIN BINDING COMPOUNDS” (AEGERA THERAPEUTICS, INC., priority 2007, published 2012).

One test deals with SKOV-3. The test can be described thus: Viability assay (MTT based), SKOV-3. Type of test: cell-based. The following applies: Homo sapiens, SK-OV-3, SKOV-3 cells, 72 hours, read-out: SKOV-3 ED50. The method, then:
(§1) MDA-MD-231 (breast) and SKOV-3 cancer cells were cultured in RPMI1640 media supplemented with 10% FBS and 100 units/mL of Penicillin and Streptomycin.
(§2) Viability assays were done on a number of cells including MDA-MB-231, SKOV-3, H460, PC3, HCT-116, and SW480 cells. Cells were seeded in 96 well plates at a respective density of 5000 and 2000 cells per well and incubated at 37° C. in presence of 5% CO2 for 24 hours. Selected compounds were diluted into the media at various concentration ranging from 0.01 uM up to 100 uM. Diluted compounds were added onto the MDA-MB-231 cells. For the MDA-MB-231 SKOV3, H460, PC3, HCT-116, and SW480 cells, the compounds were added either alone or in presence of 1-3 ng/ml of TRAIL. After 72 hours cellular viability was evaluated by MTT based assays.

The next test concerns MDA-MB-231. The test can be described thus: Viability assay (MTT based), MDA-MB-231. It counts as cell-based. The note with it: Homo sapiens, MDA-MB-231 cells, 72 hours, read-out: MDA-MB-231 ED50. The method, then: as §1, §2

Molecules are shown by their SMILES.

As for `CN[C@@H](C)C(=O)N[C@@H](Cc1ccc(C#CCO[C@H](C)[C@H](NC(=O)[C@H](C)NC)C(=O)N2CCC[C@H]2CN(CCc2ccccc2)C(=O)C(F)(F)F)cc1)C(=O)N1CCC[C@H]1CN(CCc1ccccc1)C(=O)C(F)(F)F` [Compound 1], the EC50 with SKOV-3 stood at 131 nM; in the test with MDA-MB-231, 17 nM.
In the case of `CN[C@@H](C)C(=O)N[C@@H](Cc1ccc(-c2ccc(C[C@H](NC(=O)[C@H](C)NC)C(=O)N3CCC[C@H]3CN(CCc3ccccc3)C(=O)C(F)(F)F)cc2)cc1)C(=O)N1CCC[C@H]1CN(CCc1ccccc1)C(=O)C(F)(F)F` [Compound 2], the EC50 with MDA-MB-231 amounted to 150 nM.
Regarding `CN[C@@H](C)C(=O)N[C@@H](Cc1ccc(C#CC#Cc2ccc(C[C@H](NC(=O)[C@H](C)NC)C(=O)N3CCC[C@H]3CN(CCc3ccccc3)C(=O)C(F)(F)F)cc2)cc1)C(=O)N1CCC[C@H]1CN(CCc1ccccc1)C(=O)C(F)(F)F` [Compound 3], the EC50 with SKOV-3 is 67 nM.
As for `CN[C@@H](C)C(=O)N[C@@H](Cc1ccc(C#Cc2ccc(C[C@H](NC(=O)[C@H](C)NC)C(=O)N3CCC[C@H]3CN(CCc3ccccc3)C(=O)C(F)(F)F)cc2)cc1)C(=O)N1CCC[C@H]1CN(CCc1ccccc1)C(=O)C(F)(F)F` [Compound 4], the EC50 in the test on SKOV-3 was 37 nM; in the test with MDA-MB-231, 159 nM.
Turning to `CN[C@@H](C)C(=O)N[C@@H](Cc1ccc(C#CCO[C@H](C)[C@H](NC(=O)[C@H](C)NC)C(=O)N2CCC[C@H]2CN(CCc2ccccc2)C(=O)[C@H](N)Cc2ccc(OC)cc2)cc1)C(=O)N1CCC[C@H]1CN(CCc1ccccc1)C(=O)C(F)(F)F` [Compound 5], the EC50 in the test on SKOV-3 amounted to 57 nM.
Same read-out and setting: to `CN[C@@H](C)C(=O)N[C@@H](Cc1ccc(C#CCO[C@H](C)[C@H](NC(=O)[C@H](CO)NC)C(=O)N2CCC[C@H]2CN(CCc2ccccc2)C(=O)[C@H](N)Cc2ccc(OC)cc2)cc1)C(=O)N1CCC[C@H]1CN(CCc1ccccc1)C(=O)C(F)(F)F` [Compound 6] belongs 557 nM; to `CN[C@@H](C)C(=O)N[C@H](C(=O)N1CCC[C@H]1CN(CCc1ccccc1)C(=O)[C@H](N)Cc1ccc(OC)cc1)[C@@H](C)OCC#Cc1ccc(C[C@H](NC(=O)[C@H](CO)NC)C(=O)N2CCC[C@H]2CN(CCc2ccccc2)C(=O)C(F)(F)F)cc1` [Compound 7], 136 nM.
With `CN[C@@H](CO)C(=O)N[C@@H](Cc1ccc(C#CCO[C@H](C)[C@H](NC(=O)[C@H](CO)NC)C(=O)N2CCC[C@H]2CN(CCc2ccccc2)C(=O)[C@H](N)Cc2ccc(OC)cc2)cc1)C(=O)N1CCC[C@H]1CN(CCc1ccccc1)C(=O)C(F)(F)F` [Compound 8], the EC50 in the test on SKOV-3 is 1920 nM.
